Experiments:
rat HSCs = assay: Rat HSC-to-myofibroblast trans-differentiation (α-smooth muscle actin Western blot); type: cell-based; conditions: α-sma Western blot after 9 days of treatment
Description: (§1) Figure 5 Screening for inhibitors of trans-differentiation in rat and human HSCs – Part 1. Rat HSCs were isolated and cultured for 2 days (T0) whereupon cells were treated with the indicated compound as outlined in methods section. After 9 days, cells were analyzed by Western blotting for α-smooth muscle actin (α-sma). Each lane contains 10 μg total protein/lane, results typical of at least 3 separate experiments (a). Human HSCs were treated with the indicated compound and confluence determined in randomly selected fields. Data are the mean and standard deviation confluence at day 12 of 3 separate treatment dishes from the same donor, typical of at least 3 separate donors (b).
(§2) HSCs were isolated from rats (250–300 g body weight, Harlan, UK) by sequential pronase/collagenase perfusion of the liver followed by density gradient centrifugation and elutriation as previously outlined. Human HSCs were isolated by an essentially similar procedure using discarded tissue from patients undergoing a hepatectomy with patient consent and ethical approval by the Grampian Regional Ethical Committee. HSCs were seeded onto plastic culture dishes and cultured in Dulbecco's modified Eagle Medium (DMEM) containing 4.5 g/l of glucose and supplemented with 5% or 16% (v/v) fetal calf serum (for rat or human respectively), […] penicillin, 80 μg/ml streptomycin and 32 μg/ml gentamycin. Additional treatments were made by addition of compounds in an ethanol vehicle (stock solutions at 1000× final concentration). Ethanol at 0.1% (v/v) acted as control. Frequency of treatment (3 treatments per week/2 medium changes per week), as previously described.

CYP3A4 = assay: Screening for PXR activators in human hepatocytes via CYP3A induction (Western blot); type: cell-based; conditions: human
CYP3A1/3A23 = assay: Screening for PXR activators in rat hepatocytes via CYP3A induction (Western blot); type: cell-based; conditions: rat
[1] = Pilot toxicity study in adult male rats; type: in vivo, rat; conditions: 3 days at up to 100 mg/kg body weight i.p.; 24 hours after final treatment
Description: Since there was no information in the literature regarding any potential adverse effects of 4A3COOHmethyl administration, a pilot toxicity study was initially undertaken, in which adult male rats were administered 4A3COOHmethyl for 3 days at up to 100 mg/kg body weight by i.p. injection.

[2] = test system: rat CCl4 model of liver fibrosis; assay: Rat CCl4 model of liver fibrosis; type: in vivo; conditions: 20 mg/kg i.p. weekly, 8 weeks CCl4
Description: To examine the effects of 4A3COOHmethyl on fibrosis, adult male rats were treated with 20 mg/kg body weight by i.p. injection every week during an 8 week twice weekly treatment with CCl4, to generate liver fibrosis. A reduced dose of 20 mg/kg body weight was chosen because the compound was to be administered to rats with compromised liver function. To avoid potential interactions with CCl4, toxicity (i.e., reductions in CCl4 hepatotoxicity that could be misinterpreted as anti-fibrogenic effects), 4A3COOHmethyl was not administered within a 48 hour period of CCl4 administration. Previous work has established that a similar dose of PCN – using the same dosing regimen – is sufficient to modulate fibrosis in animal models of fibrosis.
Figure 7 4A3COOHmethyl administration and liver fibrosis in a rat CCl4 model of liver fibrosis. […] Mean and standard deviation serum ALT (a); Mean and standard deviation collagen 1A1 mRNA levels (b); typical views of liver sections stained for sirius red, with a 100 μm scale bar (b); quantitative image analysis for fibrosis – data are the mean and standard deviation percentage sirius red staining from at least 4 separate animals in each treatment with at least 10 randomly selected fields examined for each animal (c). […]

[3] = molecular target: low affinity glucocorticoid binding site (LAGS) in rat liver microsomes (Rattus norvegicus, UniProt P70580); assay: Competition with radiolabelled dexamethasone for specific binding to rat liver microsomes (LAGS activity); conditions: read-out: IC50% (competition of substituted progestins for binding to rat liver microsomes); Additional file 1; vs radiolabelled dexamethasone
low affinity glucocorticoid binding site (LAGS) in rat liver microsomes, sequence (P70580 2-195): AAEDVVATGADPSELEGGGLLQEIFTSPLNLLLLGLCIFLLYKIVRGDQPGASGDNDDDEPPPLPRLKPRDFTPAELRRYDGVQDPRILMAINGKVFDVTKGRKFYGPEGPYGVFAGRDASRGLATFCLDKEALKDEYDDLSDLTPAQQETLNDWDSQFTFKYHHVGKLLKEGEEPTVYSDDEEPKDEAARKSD
Description: A small volume of each incubation was removed to determine the total ligand concentration ([L0]) prior to removal of free unbound ligand by dextran/charcoal adsorption. […] Free ligand concentration at equilibrium was calculated by subtracting specifically bound ligand at equilibrium from the total ligand concentration (i.e. [L0] - [LRe]) and assumes receptor-ligand stoichiometry of 1:1.
In brief, rats were anaesthetized with pentobarbital and a 16G cannula inserted into the hepatic portal vein and secured. […] The liver was then excised and chopped roughly with ice-cooled TS buffer (10 mM Tris/HCl pH 7.4 containing 250 mM sucrose) and disrupted using a Potter-Elvehjem homogenisor. The resultant homogenate was then centrifuged at 12,000 g for 20 minutes at 4°C and the supernatant retained and centrifuged at 100,000 g for 60 minutes at 4°C. The resultant "microsomal" pellet was re-suspended in fresh TS buffer and re-centrifuged at 100,000 g to obtain a washed microsomal pellet. […] After overnight incubation on ice, free ligand was removed by charcoal dextran adsorption and bound radioligand determined in supernatants by liquid scintillation, essentially as previously described.

human myofibroblasts = assay: Fibrogenic marker mRNA transcripts (TGFβ, TIMP1, collagen 1A1) in human myofibroblasts, qRT-PCR; type: cell-based; conditions: treatment for 19 days
Description: Quantitative transcript expression was examined after reverse transcription (using a Taqman reverse transcription kit (Applied Biosystems)) using a PE Applied Biosystems ABI7700 and PE Applied Biosystems Gene Expression Assay™, incorporating sequence-specific forward, reverse and fluorescently labelled probes (see Table 2).

human HSCs = assay: Human HSC trans-differentiation/proliferation (confluence, α-sma); type: cell-based; conditions: confluence at day 12
Description: as §1
Figure 6 Screening for inhibitors of trans-differentiation in rat and human HSCs – Part 2. Photomicrographs of human HSCs at day 12 of culture with the indicated treatment (a); levels of expression of α-smooth muscle actin (α-sma) (b) and levels of expression of fibrogenic marker mRNA transcripts in human HSCs after treatment selected compounds for 19 days. Data are the mean and standard deviation relative transcript level from 3 separate treatments on cells from the same donor, typical of at least 3 separate donors (c).
as §2

## COC(=O)[C@H]1CC[C@H]2[C@@H]3CCC4=CC(=O)CC[C@]4(C)[C@H]3CC[C@]12C [4A3COOHmethyl, 4 androstene-3-one 17β-carboxylic acid methyl ester]
Rat HSCs
  inhibition of rat HSC trans-differentiation: effective
CYP3A4
  activity as a PXR activator, human: no activity
CYP3A1/3A23
  activity as a PXR activator, rat: no activity
[1]
  adverse effects (liver serum enzyme levels and liver pathology): no adverse effects were observed
[2]
  fibrosis severity (α-sma staining, collagen 1a1 mRNA, sirius red staining): did not significantly affect
  serum levels of ALT: did not affect
[3]
  IC50: 100 nM
Human myofibroblasts
  expression of TGFβ, TIMP1 and collagen 1A1 mRNAs in human myofibroblasts: inhibited the expression of all mRNAs
Human HSCs
  inhibitory activity on human HSC trans-differentiation: significant inhibitory activity
